# Measured values: patent publication US6974885B2, “Method for isolating pharmaceutically exploitable etidronate disodium” (Schering AG, priority 2000, dated 2005)
# Where a name gives a salt, the structure may show the parent alone.
# Legend:
# [1] = Particle size analysis (RETSCH screen analysis); type: physicochemical; details: for particle size distribution, fraction 0.1-0.2 mm / particle size distribution, fraction 0.1 mm / particle size distribution, fraction 0.2-0.5 mm / particle size distribution, fraction 0.5-0.8 mm / particle size distribution, fraction 0.8-1.0 mm / particle size distribution, fraction 1.0 mm: end product; for particle size distribution, fraction 0.1-0.2 mm: screen fraction 0.1-0.2 mm; for particle size distribution, fraction 0.1 mm: screen fraction 0.1 mm; for particle size distribution, fraction 0.2-0.5 mm: screen fraction 0.2-0.5 mm; for particle size distribution, fraction 0.5-0.8 mm: screen fraction 0.5-0.8 mm; for particle size distribution, fraction 0.8-1.0 mm: screen fraction 0.8-1.0 mm; for particle size distribution, fraction 1.0 mm: screen fraction 1.0 mm
# Excerpt: A RETSCH screen analysis system was used.
# [2] = Bulk density determination (graduated cylinder, unshaken); type: physicochemical; details: end product
# Experimental: Bulk Density Determination Bulk density was determined by means of a graduated cylinder (unshaken).
# [3] = cited from earlier work
SMILES,"particle size distribution, fraction 0.1-0.2 mm [1]","particle size distribution, fraction 0.1 mm [1]","particle size distribution, fraction 0.2-0.5 mm [1]","particle size distribution, fraction 0.5-0.8 mm [1]","particle size distribution, fraction 0.8-1.0 mm [1]","particle size distribution, fraction 1.0 mm [1]",bulk density [2],particles <0.1 mm ([1]; maximum share of all particles),particles >1 mm ([1]; maximum share of all particles),solubility in organic solvents ([3]; all organic solvents),water solubility ([3]; water)
"CC(O)(P(=O)(O)O)P(=O)(O)O [Example 1, etidronate disodium]",23.8%,0.07%,27.3%,46.2%,2.16%,0.47%,0.48 g/mL,–,–,–,–
"CC(O)(P(=O)(O)O)P(=O)(O)O [Example 2, etidronate disodium]",0.07%,0.0%,19.7%,54.9%,15.6%,9.71%,0.51 g/mL,–,–,–,–
"CC(O)(P(=O)(O)O)P(=O)(O)O [etidronate disodium, disodium salt of hydroxyethane-1,1-diphosphonicacid]",–,–,–,–,–,–,0.4 to 0.6 g/mL,≤ 5 wt. %,≤ 10 wt. %,nearly insoluble,high water solubility
